Laboratory results: patent US6599706B1, “Recombinant PR-3 and assays employing the same” (Chiron Corporation, priority 1994, dated 2003)
Entries after “also recorded” stand apart in the source; their conditions may differ.

Assays:
[1] = target: T1, TNFα convertase from HL60 cells (Homo sapiens, UniProt P24158); experiment: 35S-labelled 26 kD TNFα in vitro transcription/translation autoradiographic convertase assay with HL60 convertase (P-30 fraction); type: biochemical; conditions: 30° C., 1 hour, SDS-PAGE autoradiography
T1 construct: solution containing convertase activity partially purified from uninduced HL60 cells; endogenous in cells
T1 sequence (P24158 28-248): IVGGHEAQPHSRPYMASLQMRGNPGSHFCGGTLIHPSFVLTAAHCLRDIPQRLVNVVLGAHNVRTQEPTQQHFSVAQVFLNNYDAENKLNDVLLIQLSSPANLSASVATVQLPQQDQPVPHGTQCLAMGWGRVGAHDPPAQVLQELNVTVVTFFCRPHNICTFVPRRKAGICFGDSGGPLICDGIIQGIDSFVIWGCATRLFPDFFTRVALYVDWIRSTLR
Description: A preferred assay procedure consists of in vitro transcription/translation to produce the 26 kD molecule, followed by treatment with convertase in the presence or absence of compounds being tested for convertase inhibitory activity. The procedure entails in vitro transcription/translation of the TNFα cDNA present in the pGEM vector. Thus, the sequence was removed from pB11 by Pst I digestion and was inserted into the Pst I site of pGEM-3 (obtainable from Promega Biotec, Madison Wis.). The resulting plasmid, termed pGEM-TNFα14, was amplified in E. coli using established techniques, and plasmid DNA was prepared according to the procedure of Birnboim and Doly, described above. Plasmid DNA was transcribed in vitro by linearizing it with Hind III, and the linearized plasmid templates were used to prepare capped transcripts with T7 RNA polymerase and an in vitro transcription kit supplied by Promega Biotec (Madison, Wis.).
The mRNA produced above was translated in vitro in the presence of ^35S-cysteine to produce ^35S-cysteine-labelled 26 kD TNFα. A rabbit reticulocyte lysate translation kit was used, also supplied by Promega Biotec, and the conditions recommended by the manufacturer were followed.
^35S-cysteine-labelled 26 kD TNFα was used to assay for convertase inhibitors as follows. 25 μl of in vitro translated material was combined with 250 μl of solution containing convertase activity partially purified from uninduced HL60 cells, plus compounds to be assayed for inhibitory activity. The convertase was produced by harvesting 2×10^9 HL60 cells, disrupting the cells, and isolating S-1 (supernatant fluid from a 100,000 ×g centrifugation) and P-30 (pellet from a 30,000×g centrifugation) fractions totalling 18 and 6 ml, respectively. 250 μl of the P-30 fraction was used, although the S-1 fraction may also be used. The assay was carried out at 30° C. for 1 hour, essentially as described above. Next, the reaction mixture was immunoprecipitated with rabbit anti-human TNFα polyclonal antisera (produced from TNFα made in E. coli) and protein A Sepharose, pelleted and washed. […]

[2] = target: T2, PR-3 (Homo sapiens, UniProt P24158); experiment: Inhibition of PR-3, summary statement of the assays shown below; type: biochemical
T2 sequence (P24158 28-248): T1 sequence (P24158 28-248)
Description: As shown below, PR-3 is inhibited by peptide diphenyl phosphonate inhibitors, elastinal, and dichloro-isocoumarin (DCI). The peptide diphenyl phosphonate inhibitors include Boc-Val-Pro-Val-p(OPh)2 and Boc-Ala-Pro-Val-p(OPh)2 (BOC-butoxycarbonyl). […] “Boc” means N-tert-butoxycarbonyl and “p(OPh)2” represents the diphenyl phosphonate moiety, wherein the formula—COOH group is replaced with P(=0)-(O-phenyl)2. See Oleksyszyn et al., Biochem 30:485 (1991). It will be appreciated that other peptide diphenyl phosphonate molecules may inhibit PR-3. Potential inhibitors may be constructed using the procedures shown in Oleksyszyn et al., supra, using small aliphatic peptides, for an example. Once the potential inhibitors are made, they may be tested in the assays shown below.

[3] = target: T3, TNFα convertase/PR-3 (purified native PR-3) (Homo sapiens, UniProt P24158); experiment: Colorimetric Boc-Ala-ONp assay for convertase inhibition; type: biochemical; conditions: for inhibition of TNFα convertase/PR-3 activity: 35 μM
T3 construct: from tissue; host or cells: human blood neutrophils
T3 sequence (P24158 28-248): T1 sequence (P24158 28-248)
Protocol: TNFα convertase inhibition can also be measured by a colorimetric assay. In this type of assay, the actual activity of TNFα convertase is measured directly using a colorimetric TNFα convertase substrate. […] One such substrate is Boc-Ala-ONp (Bachem Bioscience, Inc., Philadelphia, Pa.). Other potentially useful substrates can be predicted from the structure of TNFα convertase and other serine proteases. Although the example herein uses purified native PR-3 as the TNFα convertase, it is contemplated that recombinant PR-3 or other TNFα convertases can be used in this assay as well.
Peptide diphenyl phosphonate inhibitors were synthesized and stored as lyophilized solids as described in Oleksyszyn and Powers, Biochem 30:485-493 (1991). Inhibitor solutions (10 mg/ml) were prepared in 100% dimethyl sulfoxide (DMSO) and diluted into aqueous buffers upon initiation of the experiments. 3,4, dichloro-isocoumarin was purchased from CalBiochem. Purified PR-3 (10 μl, 0.1 mg/ml) was mixed with varying concentrations of protease inhibitor ([…]) in 20 mM sodium phosphate buffer, pH 7.0, containing 0.1 M sodium chloride. Aliquots (40 μl) were removed at selected times and diluted 1/10 into a colorimetric assay for convertase, containing 0.5-1 mM Boc-Ala-ONp (prepared fresh from a 50 mM stock in 100% methanol) in 0.02 M sodium phosphate buffer, pH 7.0, 0.1 M sodium chloride. The increase in absorbance was monitored at 347 nm on a Hewlett Packard 8450A spectrophotometer, and using an extinction coefficient of 5.5×10^3 M^−1cm^−1 to calculate units of enzyme activity.
The peptide diphenyl phosphonates were tested in the colorimetric assay described in Example 3, for inhibition of TNFα convertase/PR-3 activity.

[4] = target: T4, recombinant PR-3 (rPR-3) (Homo sapiens, UniProt P24158); experiment: Residual recombinant PR-3 activity with Boc-Ala-ONp substrate; type: biochemical
T4 construct: made in house; host or cells: Sf9 insect cells (baculovirus, pAcC13preproPR-3)
T4 sequence (P24158 28-248 limits assumed): T1 sequence (P24158 28-248)
Protocol: Cytoplasmic anti-neutrophil cytoplasmic antibodies (c-ANCA) are human polyclonal antibodies derived from patients with Wegener's granulomatosis. […] Protein-A-purified human c-ANCA (supplied by Dr. Erik Hack, The Netherlands) was mixed with purified recombinant PR-3 (SEQ ID NO: 23) prepared as described above at various molar ratios of antibody to enzyme, and after incubation for 1 hour at 37° C., residual enzyme activity was measured using the Boc-Ala-ONp substrate as described in Example 4.
The two peptide diphosphonate inhibitors, Boc-Ala-Pro-Val-(OPh)2 and Boc-Val-Pro-Val-(OPh)2, were mixed at various concentrations with 125 ng of rPR-3 (prepared as described above) and incubated for 1 hour at 25° C. The residual enzyme activity was measured using the Boc-Ala-ONp substrate and compared to the same amount of enzyme incubated in the absence of inhibitor. Under these conditions, the Boc-Ala-Pro-Val-(OPh)2 inhibited PR-3 with an IC50 of about 10 μM and the Boc-Val-Pro-Val-(OPh)2 inhibited PR-3 with an IC50 of about 0.4 μM. […] Thus, recombinant PR-3 may be employed in detection of useful inhibitors of native PR-3.

[5] = tested on: IL-6 release from mouse macrophages; experiment: LPS-induced IL-6 secretion by adherent peritoneal macrophages (B9 bioassay); type: cell-based
Protocol: (§1) Release of TNFα by macrophages after stimulation by LPS is a major source of TNFα in the host. In these studies peritoneal macrophages were purified by adhesion, cultured in 24 well plates, and LPS was added to induce secretion of TNFα. […] DCI was then added in dimethyl sulfoxide vehicle to cultures. The control cultures had DMSO alone added in equivalent concentrations. Supernatants were collected and assayed for TNFα and IL-6. […] [table]

[6] = tested on: serum TNFα; experiment: Serum TNFα in mice injected with a lethal dose of LPS; type: in vivo, mouse; conditions: DCI injected 1 hour before lethal LPS dose; ELISA and L929 lysis
Description: (§2) The kinetics of induction TNFα and IL-6 in mice injected with a lethal dose of LPS was studied. […] Also, there was a delayed increase in TNFα measured up to the 6-hour time point. This was true for both immunoreactive mouse TNFα measured by ELISA and bioactive YNFα measured by lysis of L929 cells. IL-6 levels were not reduced by this therapy.

[7] = tested on: TNFα release from mouse macrophages; experiment: LPS-induced TNFα secretion by adherent peritoneal macrophages (ELISA); type: cell-based
Protocol: as §1

[8] = Stability and formulation studies in corn oil; type: physicochemical; conditions: dissolved in corn oil
Description: (§3) This represented a maximal tolerated dose of DCI that could be administered.

[9] = tested on: mice; experiment: Toxicity of DCI/oil injected into mice; type: in vivo, mouse; conditions: injection of DCI/oil into mice
Description: as §3

[10] = tested on: serum IL-6; experiment: Serum IL-6 in mice injected with a lethal dose of LPS; type: in vivo, mouse; conditions: DCI injected 1 hour before lethal LPS dose
Description: as §2

[11] = target: T5, purified native PR-3 from human neutrophils (Homo sapiens, UniProt P24158); experiment: 35S-labelled 26 kD TNFα autoradiographic convertase assay with purified native PR-3; type: biochemical; conditions: 45 μM; PR-3 0.3 μg/ml preincubated 30 minutes
T5 construct: from tissue; host or cells: human blood neutrophils
T5 sequence (P24158 28-248): T1 sequence (P24158 28-248)
Protocol: ^35S-cysteine-labelled 26 kD TNFα was used to assay for convertase inhibitors as follows. 25 μl of in vitro translated material was combined with 250 μl of solution containing convertase activity partially purified from uninduced HL60 cells, plus compounds to be assayed for inhibitory activity. The convertase was produced by harvesting 2×10^9 HL60 cells, disrupting the cells, and isolating S-1 (supernatant fluid from a 100,000 ×g centrifugation) and P-30 (pellet from a 30,000×g centrifugation) fractions totalling 18 and 6 ml, respectively. 250 μl of the P-30 fraction was used, although the S-1 fraction may also be used. The assay was carried out at 30° C. for 1 hour, essentially as described above. Next, the reaction mixture was immunoprecipitated with rabbit anti-human TNFα polyclonal antisera (produced from TNFα made in E. coli) and protein A Sepharose, pelleted and washed. The bound protein was eluted and electrophoresed using SDS-PAGE. The gel was fixed in 40% methanol, 10% acetic acid, soaked in Enlightening (Dupont), dried, and exposed to X-ray film which was subsequently developed.
The above assay was also used with purified native PR-3 from human neutrophils to test a variety of proteinase inhibitors for their ability to inhibit TNFα convertase activity, as shown in FIG. 5. Purified PR-3 (0.3 μg/ml) was preincubated for 30 minutes with the following inhibitors prior to addition of ^35S-labelled 26 kD-TNFα, and then assayed as described above: DCI (45 μM), α-2-macroglobulin (1 mg/ml), PMSF (20 μM), leupeptin (2 μg/ml), EDTA (10 mM), or pepstatin (2 μg/ml).

[12] = tested on: mice injected with LPS; experiment: Survival of mice injected with a lethal dose of LPS; type: in vivo, mouse
Protocol: The effect of DCI on survival of mice injected with a dose of LPS that results in 100% death of animals by 24 hours was also investigated.

[13] = LPS-stimulated peritoneal macrophages, versus DMSO vehicle

With `CO[C@@H]1C(=O)N2C(C(=O)N3CCOCC3)=C(COC(C)=O)CS(=O)(=O)[C@H]12` (relative stereo) [(1-((3-((acetyloxyl)-7-methoxy-8-oxy-8-oxo-5-thio-1-azabicyclo [4.2.0]oct-2-en-2-yl)carbonyl)morpholine, S, S-dioxide, (6R-cis)] as the compound, how does the “inhibition of convertase activity (conversion of 26 kD TNFα)” value ([1]; 1 mM) read?
The value was “inhibits convertase activity”.

With `CC(C)C(NC(=O)[C@@H]1CCCN1C(=O)[C@H](C)NC(=O)OC(C)(C)C)P(=O)(Oc1ccccc1)Oc1ccccc1` (stereo partly drawn) [APV, Boc-Ala-Pro-Val-p(OPh)2] as the compound, how does the “inhibition of PR-3” value [2] read?
Its value is “inhibited”.

What about the “inhibition of TNFα convertase/PR-3 activity” value [3] of the same compound?
Its value is “demonstrated inhibitory activity”.

And the IC50 [4]?
The IC50 was ~10 µM.

Which “inhibition of PR-3” value [2] does the source give for `CC(NC(=O)OC(C)(C)C)C(=O)NC(CCC(N)=O)C(=O)NC(C)P(=O)(Oc1ccccc1)Oc1ccccc1` (stereo not drawn) [AQA, Boc-Ala-Gln-Ala-p(OPh)2] here?
Its value is “much less inhibitory activity”.

And the “inhibition of TNFα convertase/PR-3 activity” value [3]?
Its value is “marginal, if any inhibition”.

Which results are given for `O=c1oc(Cl)c(Cl)c2ccccc12` [DCI, 3,4 dichloroisocoumarin]?
IL-6 ([5]; DCI 20 μg/ml, macrophages 10^6/ml with LPS, 3 hours, B9 bioassay): 189 pg/mL; IL-6 response [5, 13]: not significantly altered; inhibition of PR-3 [2]: inhibited; serum TNFα [6]: marked inhibition; also recorded: decreased; TNFα ([7]; DCI 20 μg/ml, macrophages 10^6/ml with LPS, 3 hours, ELISA): 0.05 ng/mL; TNFα secretion [7, 13]: markedly suppressed; stability [8]: stable and retained serine protease inhibitor activity; LD 50% [9]: 1 mg/mL; IL-6 levels [10]: not reduced; inhibition of TNFα convertase activity of purified PR-3 [11]: significant inhibitory activity; inhibition at 95 µM ([3]; 95 μM): 100%; inhibition of the convertase (conversion of 26 kD TNFα) ([1]; 100 pg/ml): inhibit the convertase; dose response of survival effect ([12]; 0.75 mg of DCI compared with 0.5 mg): more effective than 0.5 mg; survival ([12]; prophylactic DCI, LPS dose giving 100% death by 24 hours): prolong survival

Which “inhibition of PR-3” value [2] does the source give for `CC(C)CC(NC(=O)OC(C)(C)C)C(=O)NC(C)C(=O)NC(CCC(N)=O)C(=O)NC(C)P(=O)(Oc1ccccc1)Oc1ccccc1` (stereo not drawn) [LAQA, Boc-Leu-Ala-Gln-Ala-p(OPh)2] here?
Its value is “much less inhibitory activity”.

And the “inhibition of TNFα convertase/PR-3 activity” value [3]?
Its value is “marginal, if any inhibition”.
